We go through 35 compounds from ChEMBL document CHEMBL4138202, “Design, synthesis, biological evaluation and molecular modeling of novel 2-amino-4-(1-phenylethoxy) pyridine derivatives as potential ROS1 inhibitors” (Eur J Med Chem, 2018).

Experiment [1] deals with Proto-oncogene tyrosine-protein kinase ROS (Homo sapiens, UniProt P08922). Put plainly: Inhibition of recombinant human GST-tagged ROS1 expressed in baculovirus expression system by Z'LYTE assay.
The subject of experiment [2] is NCI-H3122. Put plainly: Antiproliferative activity against human NCI-H3122 cells after 48 hrs by MTT assay. The settings on record: NCI-H3122, 48 h.
In experiment [3] the test system is HCC78. Put plainly: Antiproliferative activity against human HCC78 cells after 48 hrs by MTT assay. As to conditions: HCC78, 48 h.
The target in experiment [4] is ALK tyrosine kinase receptor (Homo sapiens, UniProt Q9UM73). Put plainly: Inhibition of recombinant human GST-tagged ALK expressed in baculovirus expression system by Z'LYTE assay.
Experiment [5] addresses Tyrosine-protein kinase ABL1 (Homo sapiens) (UniProt P00519). Put plainly: Inhibition of recombinant human His-tagged ABL1 expressed in baculovirus expression system at 1 uM by Z'LYTE assay relative to control.
The target in experiment [6] is Serine/threonine-protein kinase B-raf (Homo sapiens) (UniProt P15056). Put plainly: Inhibition of recombinant human full length GST-tagged BRAF expressed in baculovirus expression system at 1 uM by Z'LYTE assay relative to control.
Experiment [7] has as its target CDK2/Cyclin A2 (Homo sapiens) (UniProt P24941+P20248). Put plainly: Inhibition of recombinant human full length His-tagged CDK2/cyclin A expressed in baculovirus expression system at 1 uM by Z'LYTE assay relative to control.
In experiment [8] the target is Epidermal growth factor receptor (Homo sapiens) (UniProt P00533). Put plainly: Inhibition of recombinant human GST-tagged EGFR expressed in baculovirus expression system at 1 uM by Z'LYTE assay relative to control.
The target of experiment [9] is Fibroblast growth factor receptor 1 (Homo sapiens) (UniProt P11362). Put plainly: Inhibition of recombinant human His-tagged FGFR1 expressed in baculovirus expression system at 1 uM by Z'LYTE assay relative to control.
In experiment [10] the target is Insulin-like growth factor 1 receptor (Homo sapiens) (UniProt P08069). Put plainly: Inhibition of recombinant human His-tagged IGF1R expressed in baculovirus expression system at 1 uM by Z'LYTE assay relative to control.
The target in experiment [11] is Tyrosine-protein kinase JAK2 (Homo sapiens) (UniProt O60674). Put plainly: Inhibition of recombinant human GST-tagged JAK2 expressed in baculovirus expression system at 1 uM by Z'LYTE assay relative to control.
The target in experiment [12] is Mast/stem cell growth factor receptor Kit (Homo sapiens) (UniProt P10721). Put plainly: Inhibition of KIT (unknown origin) at 1 uM by Z'LYTE assay relative to control.
The target in experiment [13] is Leukocyte tyrosine kinase receptor (Homo sapiens) (UniProt P29376). Put plainly: Inhibition of recombinant human GST-tagged LTK expressed in baculovirus expression system at 1 uM by Z'LYTE assay relative to control.
Experiment [14] deals with Mitogen-activated protein kinase 3 (Homo sapiens) (UniProt P27361). Put plainly: Inhibition of recombinant human GST-tagged full length MAPK3 expressed in Escherichia coli at 1 uM by Z'LYTE assay relative to control.
In experiment [15] the target is Hepatocyte growth factor receptor (Homo sapiens) (UniProt P08581). Put plainly: Inhibition of recombinant human His-tagged MET expressed in mammalian expression system at 1 uM by Z'LYTE assay relative to control.
The target of experiment [16] is Platelet-derived growth factor receptor alpha (Homo sapiens) (UniProt P16234). Put plainly: Inhibition of recombinant human GST-tagged PDGFRalpha expressed in baculovirus expression system at 1 uM by Z'LYTE assay relative to control.

Proto-oncogene tyrosine-protein kinase ROS, sequence (P08922 whole entry): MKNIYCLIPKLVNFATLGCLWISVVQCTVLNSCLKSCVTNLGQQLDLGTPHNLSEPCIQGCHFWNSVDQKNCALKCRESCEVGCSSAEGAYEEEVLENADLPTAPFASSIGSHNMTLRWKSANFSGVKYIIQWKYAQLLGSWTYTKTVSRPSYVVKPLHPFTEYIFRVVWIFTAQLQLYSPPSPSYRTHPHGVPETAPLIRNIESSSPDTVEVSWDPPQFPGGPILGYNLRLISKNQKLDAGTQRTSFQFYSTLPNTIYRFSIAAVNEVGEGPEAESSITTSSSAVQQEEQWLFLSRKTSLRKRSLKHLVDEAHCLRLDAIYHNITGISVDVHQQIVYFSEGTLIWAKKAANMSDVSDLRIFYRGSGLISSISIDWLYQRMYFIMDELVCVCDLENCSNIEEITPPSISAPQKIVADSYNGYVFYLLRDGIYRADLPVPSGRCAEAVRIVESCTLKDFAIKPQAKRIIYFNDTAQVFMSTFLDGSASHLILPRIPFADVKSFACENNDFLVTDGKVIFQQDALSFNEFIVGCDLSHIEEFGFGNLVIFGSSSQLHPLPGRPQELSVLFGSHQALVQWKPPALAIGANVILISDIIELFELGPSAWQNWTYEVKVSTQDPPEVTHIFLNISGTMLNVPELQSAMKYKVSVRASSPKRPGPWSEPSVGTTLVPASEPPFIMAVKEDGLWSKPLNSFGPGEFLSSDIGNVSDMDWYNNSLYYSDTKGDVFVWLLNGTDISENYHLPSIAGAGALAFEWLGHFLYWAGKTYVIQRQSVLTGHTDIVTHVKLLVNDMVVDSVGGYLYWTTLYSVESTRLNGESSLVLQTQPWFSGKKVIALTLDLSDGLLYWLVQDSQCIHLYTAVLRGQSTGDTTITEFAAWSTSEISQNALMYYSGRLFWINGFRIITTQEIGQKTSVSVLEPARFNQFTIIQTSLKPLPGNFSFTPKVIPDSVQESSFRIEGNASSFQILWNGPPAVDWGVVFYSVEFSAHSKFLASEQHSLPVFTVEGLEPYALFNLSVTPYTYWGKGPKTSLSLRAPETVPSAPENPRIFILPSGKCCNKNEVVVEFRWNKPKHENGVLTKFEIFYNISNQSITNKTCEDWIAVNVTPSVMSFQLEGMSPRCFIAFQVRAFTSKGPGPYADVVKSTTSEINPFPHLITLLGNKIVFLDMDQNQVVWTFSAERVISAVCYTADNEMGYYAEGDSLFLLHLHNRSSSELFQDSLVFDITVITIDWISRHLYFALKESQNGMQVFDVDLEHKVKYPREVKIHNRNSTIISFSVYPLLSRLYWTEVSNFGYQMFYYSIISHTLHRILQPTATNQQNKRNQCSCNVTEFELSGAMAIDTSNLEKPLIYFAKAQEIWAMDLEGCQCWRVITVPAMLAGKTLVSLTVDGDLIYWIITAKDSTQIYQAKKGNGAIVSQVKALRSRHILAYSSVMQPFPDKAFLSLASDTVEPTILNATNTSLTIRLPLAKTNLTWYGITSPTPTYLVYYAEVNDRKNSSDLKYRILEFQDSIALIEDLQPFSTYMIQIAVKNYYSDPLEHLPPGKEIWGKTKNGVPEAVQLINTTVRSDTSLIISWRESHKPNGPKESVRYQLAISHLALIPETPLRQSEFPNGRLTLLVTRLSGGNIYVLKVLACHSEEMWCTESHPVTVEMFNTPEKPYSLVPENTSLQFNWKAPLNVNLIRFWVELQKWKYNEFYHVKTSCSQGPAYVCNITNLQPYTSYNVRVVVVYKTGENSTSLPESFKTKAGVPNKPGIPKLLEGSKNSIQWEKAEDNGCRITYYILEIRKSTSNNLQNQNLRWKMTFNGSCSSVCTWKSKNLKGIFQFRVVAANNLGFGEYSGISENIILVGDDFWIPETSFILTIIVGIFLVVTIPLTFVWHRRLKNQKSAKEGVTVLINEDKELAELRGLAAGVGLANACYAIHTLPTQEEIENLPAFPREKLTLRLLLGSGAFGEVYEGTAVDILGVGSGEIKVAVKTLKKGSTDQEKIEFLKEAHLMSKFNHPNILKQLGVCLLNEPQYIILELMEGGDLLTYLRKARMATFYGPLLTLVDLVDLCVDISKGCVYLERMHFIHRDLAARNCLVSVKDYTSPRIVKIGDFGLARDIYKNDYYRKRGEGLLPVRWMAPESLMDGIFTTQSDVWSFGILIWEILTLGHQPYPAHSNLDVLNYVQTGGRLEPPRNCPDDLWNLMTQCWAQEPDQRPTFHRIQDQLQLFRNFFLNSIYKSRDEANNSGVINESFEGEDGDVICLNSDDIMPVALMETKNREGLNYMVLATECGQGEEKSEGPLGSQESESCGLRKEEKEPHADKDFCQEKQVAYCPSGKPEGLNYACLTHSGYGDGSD
ALK tyrosine kinase receptor, sequence (Q9UM73 whole entry): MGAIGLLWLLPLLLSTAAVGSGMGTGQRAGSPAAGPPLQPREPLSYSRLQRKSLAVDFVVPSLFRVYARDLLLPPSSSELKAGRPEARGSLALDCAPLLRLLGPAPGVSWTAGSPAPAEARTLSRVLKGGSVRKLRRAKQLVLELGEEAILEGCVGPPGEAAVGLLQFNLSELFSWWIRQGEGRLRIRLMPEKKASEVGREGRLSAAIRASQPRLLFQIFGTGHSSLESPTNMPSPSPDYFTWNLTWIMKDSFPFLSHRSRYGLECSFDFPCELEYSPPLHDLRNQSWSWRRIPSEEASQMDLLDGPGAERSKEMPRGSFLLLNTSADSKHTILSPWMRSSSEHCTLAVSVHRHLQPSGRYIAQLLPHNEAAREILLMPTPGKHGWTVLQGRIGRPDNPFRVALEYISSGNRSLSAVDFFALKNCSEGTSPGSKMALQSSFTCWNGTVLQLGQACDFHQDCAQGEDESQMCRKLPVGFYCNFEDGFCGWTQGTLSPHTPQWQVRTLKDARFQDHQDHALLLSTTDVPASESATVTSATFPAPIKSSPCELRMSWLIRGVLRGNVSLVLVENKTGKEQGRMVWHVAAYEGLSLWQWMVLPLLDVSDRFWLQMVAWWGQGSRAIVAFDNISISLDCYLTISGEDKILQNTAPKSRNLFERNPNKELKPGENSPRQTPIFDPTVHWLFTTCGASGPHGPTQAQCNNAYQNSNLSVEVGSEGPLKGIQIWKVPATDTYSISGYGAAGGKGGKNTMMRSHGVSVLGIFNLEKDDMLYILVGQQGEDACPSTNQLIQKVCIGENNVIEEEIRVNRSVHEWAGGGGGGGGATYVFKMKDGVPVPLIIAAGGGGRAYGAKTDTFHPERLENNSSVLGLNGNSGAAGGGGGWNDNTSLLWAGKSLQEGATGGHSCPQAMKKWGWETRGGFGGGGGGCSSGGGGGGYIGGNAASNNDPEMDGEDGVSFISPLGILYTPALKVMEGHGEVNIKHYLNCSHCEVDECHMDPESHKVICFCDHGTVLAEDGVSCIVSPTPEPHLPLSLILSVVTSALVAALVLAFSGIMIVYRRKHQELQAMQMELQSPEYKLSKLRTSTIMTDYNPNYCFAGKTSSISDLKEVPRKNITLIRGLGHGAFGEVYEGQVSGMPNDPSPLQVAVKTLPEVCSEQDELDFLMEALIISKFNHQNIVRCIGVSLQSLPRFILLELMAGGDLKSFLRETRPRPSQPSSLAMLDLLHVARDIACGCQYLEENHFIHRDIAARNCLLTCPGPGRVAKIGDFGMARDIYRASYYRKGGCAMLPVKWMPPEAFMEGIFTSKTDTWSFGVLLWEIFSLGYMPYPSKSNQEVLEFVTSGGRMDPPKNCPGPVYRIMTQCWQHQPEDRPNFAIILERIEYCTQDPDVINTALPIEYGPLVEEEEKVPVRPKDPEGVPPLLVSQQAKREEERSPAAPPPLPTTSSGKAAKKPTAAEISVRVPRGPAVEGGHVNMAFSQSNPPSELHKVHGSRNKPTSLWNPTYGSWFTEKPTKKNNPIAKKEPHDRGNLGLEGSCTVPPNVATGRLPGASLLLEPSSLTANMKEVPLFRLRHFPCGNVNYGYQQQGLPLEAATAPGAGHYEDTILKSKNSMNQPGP
Mast/stem cell growth factor receptor Kit (Homo sapiens), sequence (P10721 whole entry): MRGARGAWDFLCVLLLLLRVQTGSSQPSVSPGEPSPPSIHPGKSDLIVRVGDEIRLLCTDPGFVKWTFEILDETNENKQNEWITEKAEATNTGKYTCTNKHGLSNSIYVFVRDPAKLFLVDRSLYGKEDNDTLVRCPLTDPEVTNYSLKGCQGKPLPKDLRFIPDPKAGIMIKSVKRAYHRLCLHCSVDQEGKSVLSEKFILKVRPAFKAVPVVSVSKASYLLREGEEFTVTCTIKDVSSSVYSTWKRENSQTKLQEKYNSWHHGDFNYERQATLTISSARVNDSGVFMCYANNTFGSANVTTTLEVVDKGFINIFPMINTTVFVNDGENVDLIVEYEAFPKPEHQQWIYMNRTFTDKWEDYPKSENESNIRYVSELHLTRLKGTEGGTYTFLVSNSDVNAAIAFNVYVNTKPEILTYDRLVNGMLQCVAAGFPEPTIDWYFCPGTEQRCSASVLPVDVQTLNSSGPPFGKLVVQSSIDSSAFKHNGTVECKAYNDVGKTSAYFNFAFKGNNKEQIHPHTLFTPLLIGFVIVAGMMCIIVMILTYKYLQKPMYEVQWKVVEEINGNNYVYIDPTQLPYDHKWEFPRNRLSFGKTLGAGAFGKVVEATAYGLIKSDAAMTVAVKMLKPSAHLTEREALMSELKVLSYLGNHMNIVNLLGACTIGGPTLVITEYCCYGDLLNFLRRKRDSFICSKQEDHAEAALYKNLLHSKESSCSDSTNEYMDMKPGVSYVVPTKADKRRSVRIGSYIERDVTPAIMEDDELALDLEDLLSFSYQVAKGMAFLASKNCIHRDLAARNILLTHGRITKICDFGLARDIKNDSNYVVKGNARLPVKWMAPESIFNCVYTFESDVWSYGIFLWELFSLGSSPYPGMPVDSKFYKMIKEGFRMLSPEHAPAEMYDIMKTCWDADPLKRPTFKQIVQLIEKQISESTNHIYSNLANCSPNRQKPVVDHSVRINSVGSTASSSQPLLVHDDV

Take `Cc1ccc(CNC(=O)c2cccc(C(C)Oc3ccnc(Nc4cn(C)nc4C)c3)c2)cc1` (stereo not given): the results for the IC50 in experiment [1], in [2] and in experiment [3] were 1.4 µM, 13.4 µM and 17.5 µM, respectively.
The matching figures for `COc1ccc(CNC(=O)c2cccc(C(C)Oc3ccnc(Nc4cnn(C)c4)c3)c2)cc1OC` (stereo not given): 0.64 µM, 38.5 µM and 76.6 µM.
For `Cc1cnc(Nc2ncccc2OC(C)c2cccc(C(=O)NCc3ccc(F)c(Cl)c3)c2)s1` (stereo not given) the same measures were 9.6 µM, 8.2 µM and 34.7 µM.
On to `CC(Oc1cccnc1Nc1cnn(C)c1)c1cccc(C(=O)NCc2ccc(F)c(Cl)c2)c1` (stereo not given), for which the values for the IC50 in experiment [1], in [2] and in [3] were above 10 µM, 35.7 µM and 7.8 µM, respectively.
With `CC(Oc1ccnc(Nc2cnn(C)c2)c1)c1cccc(C(=O)NCc2cc(C(F)(F)F)cc(C(F)(F)F)c2)c1` (stereo not given), the IC50 in [4] was above 10 µM; in [1] it was 7.4 µM; in experiment [2], 24.7 µM; in experiment [3] it was 9.3 µM.
Turning to `CC(Oc1cccnc1Nc1cnn(C)c1)c1cccc(C(=O)NCc2ccc(OC(F)(F)F)cc2)c1` (stereo not given), the values for the IC50 in experiment [1], in [2] and in experiment [3] were above 10 µM, 8.3 µM and 73.9 µM, respectively.
The matching figures for `Cc1ccc(CNC(=O)c2cccc(C(C)Oc3ccnc(NN4CCOCC4)c3)c2)cc1` (stereo not given): above 10 µM, above 100 µM and 68.3 µM.
The matching figures for `Cc1ccc(CNC(=O)c2cccc(C(C)Oc3cccnc3Nc3nccs3)c2)cc1` (stereo not given): above 10 µM, 15.3 µM and 27.1 µM.
As to `Cc1ccc(CNC(=O)c2cccc(C(C)Oc3cccnc3Nc3ncccn3)c2)cc1` (stereo not given), the half-inhibitory concentration (IC50) in experiment [4] is above 10 µM; in [1] it was 6.2 µM; in [2], above 100 µM; in experiment [3] it was above 100 µM.
As to `CC(Oc1ccnc(Nc2cnn(C)c2)c1)c1cccc(C(=O)NCc2ccc(C#N)cc2)c1` (stereo not given), the IC50 stood at 1.5 µM in experiment [1], 35.1 µM in experiment [2] and 8.7 µM in experiment [3].
For `COc1cc(Nc2cc(OC(C)c3cccc(C(=O)NCc4ccc(C)cc4)c3)ccn2)cc(OC)c1OC` (stereo not given) the same measures were 2.4 µM, 7.8 µM and 15.7 µM.
In the case of `Cc1ccc(CNC(=O)c2cccc(C(C)Oc3ccnc(Nc4cnn(CC(C)(C)O)c4)c3)c2)cc1` (stereo not given), the half-inhibitory concentration (IC50) is above 10 µM in experiment [4], 2.4 µM in experiment [1], above 100 µM in experiment [2] and 49.7 µM in experiment [3].
For `Cc1ccc(CNC(=O)c2cccc(C(C)Oc3cccnc3Nc3cnn(CC(C)(C)O)c3)c2)cc1` (stereo not given) the same measures were above 10 µM, 9.4 µM, 9.1 µM and 20.5 µM.
For the compound `Cc1ccc(CNC(=O)c2cccc(C(C)Oc3cccnc3Nc3nncs3)c2)cc1` (stereo not given), the IC50 in experiment [1] is above 10 µM; in experiment [2], 20.8 µM; in experiment [3], 17.6 µM.
For the compound `Cc1ccc(CNC(=O)c2cccc(C(C)Oc3cccnc3Nc3ncc(C)s3)c2)cc1` (stereo not given), the IC50 in experiment [4] was above 10 µM; in [1], 9.4 µM; in experiment [2], 8.5 µM; in [3], 14.8 µM.
With `CC(Oc1ccnc(NN2CCN(C)CC2)c1)c1cccc(C(=O)NCc2ccc(Cl)c(C(F)(F)F)c2)c1` (stereo not given), the concentration for half-maximal inhibition (IC50) amounted to 9.1 µM in [1], 21.7 µM in [2] and 23.5 µM in experiment [3].
For `COc1ccc(CNC(=O)c2cccc(C(C)Oc3ccnc(Nc4cnn(C5CCN(C)CC5)c4)c3)c2)cc1OC` (stereo not given) the same measures were 0.57 µM, 14.8 µM and 9 µM.
In the case of `C[C@@H](Oc1cc(-c2cnn(C3CCNCC3)c2)cnc1N)c1c(Cl)ccc(F)c1Cl` [CRIZOTINIB], the IC50 in experiment [2] is 0.8 µM; in experiment [3] it was 2 µM.
As for `Cc1ccc(CNC(=O)c2cccc(C(C)Oc3ccnc(Nc4cnn(C)c4)c3)c2)cc1` (stereo not given), the results for the IC50 in experiment [1], in [2] and in experiment [3] were 1.8 µM, 7.7 µM and 8.9 µM, respectively.
With `COc1ccc(CNC(=O)c2cccc(C(C)Oc3ccnc(Nc4cnn(C5CCNCC5)c4)c3)c2)cc1OC` (stereo not given), the IC50 in experiment [4] amounted to 4.5 µM; in experiment [1], 0.37 µM; in [2], 47.2 µM; in experiment [3] it was 65.3 µM. Also, the inhibition was 11% in [5]; 13% in experiment [6]; 2% in experiment [7]; 0% in experiment [8]; 16% in experiment [9]; 9% in [10]. Also, the inhibition stood at 10% in experiment [11]; 3% in experiment [12]; 15% in experiment [13]; 7% in experiment [14]; 5% in [15]; 1% in experiment [16].
`Cc1ccc(CNC(=O)c2cccc(C(C)Oc3cccnc3Nn3cnnc3)c2)cc1` (stereo not given): the figures for the IC50 in experiment [1], in experiment [2] and in experiment [3] were above 10 µM, 23.7 µM and 9.4 µM, respectively.
For `COc1cc(CNC(=O)c2cccc(C(C)Oc3ccnc(Nc4cnn(C)c4)c3)c2)cc(OC)c1OC` (stereo not given) the same measures were 0.41 µM, 29 µM and 73.9 µM.
With `CC(Oc1ccnc(Nc2cnn(C3CCN(C)CC3)c2)c1)c1cccc(C(=O)NCc2ccc(Cl)c(C(F)(F)F)c2)c1` (stereo not given), the IC50 in experiment [1] was 2.3 µM; in [2] it was 8 µM; in experiment [3], 7.3 µM.
For `COc1ccc(CNC(=O)c2cccc(C(C)Oc3ccnc(Nc4ncccn4)c3)c2)cc1OC` (stereo not given) the same measures were 0.44 µM, above 100 µM and above 100 µM.
For the compound `Cc1ccc(CNC(=O)c2cccc(C(C)Oc3ccnc(NN4CCCCC4)c3)c2)cc1` (stereo not given), the figures for the IC50 in experiment [1], in experiment [2] and in [3] were above 10 µM, 37.4 µM and 24.5 µM, respectively.
For `COc1cccc(CNC(=O)c2cccc(C(C)Oc3cccnc3Nc3cnn(C)c3)c2)c1` (stereo not given) the same measures were above 10 µM, 49.4 µM and 78.6 µM.
Regarding `CC(Oc1cccnc1Nc1cnn(C)c1)c1cccc(C(=O)NCc2ccc(Cl)c(C(F)(F)F)c2)c1` (stereo not given), the IC50 in [1] came out at 6.3 µM; in experiment [2], 50.7 µM; in experiment [3], 48.6 µM.
As to `CC(Oc1cccnc1Nc1cnn(C)c1)c1cccc(C(=O)NCc2ccccc2S(=O)(=O)C(C)C)c1` (stereo not given), the IC50 was above 10 µM in experiment [4], 8.7 µM in [1], above 100 µM in experiment [2] and 63.1 µM in experiment [3].
As to `Cc1ccc(CNC(=O)c2cccc(C(C)Oc3ccnc(NN4CCN(C)CC4)c3)c2)cc1` (stereo not given), the figures for the 50% inhibitory concentration (IC50) in [1], in [2] and in [3] were above 10 µM, 8.1 µM and 26.2 µM, respectively.
The matching figures for `CC(Oc1cccnc1Nc1cnn(C)c1)c1cccc(C(=O)NCc2ccc(F)cc2)c1` (stereo not given): above 10 µM, 43.8 µM and 68.5 µM.
In the case of `Cc1ccc(CNC(=O)c2cccc(C(C)Oc3ccnc(Nc4nc5ccccc5[nH]4)c3)c2)cc1` (stereo not given), the IC50 in experiment [4] was above 10 µM; in [1] it was above 10 µM; in [2], 9.4 µM; in experiment [3], above 100 µM.
Regarding `CC(Oc1ccnc(Nc2cnn(CC(C)(C)O)c2)c1)c1cccc(C(=O)NCc2ccc(Cl)c(C(F)(F)F)c2)c1` (stereo not given), the IC50 in [1] was 8.4 µM; in [2], 38.4 µM; in experiment [3], above 100 µM.
In the case of `Cc1ccc(CNC(=O)c2cccc(C(C)Oc3cccnc3Nc3cnn(CC#N)c3)c2)cc1` (stereo not given), the IC50 is above 10 µM in experiment [4], 8.7 µM in experiment [1], 38.4 µM in experiment [2] and 57.4 µM in experiment [3].
Turning to `CC(Oc1ccnc(Nc2cnn(C)c2)c1)c1cccc(C(=O)NCc2cc(F)cc(F)c2)c1` (stereo not given), the IC50 in [1] was 2.4 µM; in experiment [2], 7.6 µM; in [3] it was 13.2 µM.
The matching figures for `COc1cccc(CNC(=O)c2cccc(C(C)Oc3ccnc(Nc4cnn(C)c4)c3)c2)c1` (stereo not given): 1.8 µM, above 100 µM and 64.4 µM.
